In the METLIN SMRT retention time set (Domingo-Almenara et al. 2019):

experiment: gradient 5% acetonitrile 3 min, to 50% in 2 min, to 85% in 15 min, held 3 min, 100 µL/min; conditions: column: Zorbax Extend-C18 2.1 x 50 mm; eluents: water / acetonitrile, 0.1% formic acid
In short: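 Standards, all pure, were combined into mixtures of ~100 molecules and run at 100 μL/min on a Zorbax Extend-C18 column (2.1 × 50 mm, 1.8 μm) with water and acetonitrile, each containing 0.1% formic acid. A coupled quadrupole time-of-flight mass spectrometer operated in positive and negative ionization mode. Retention time values come from computationally picked adduct peaks, each inspected manually.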

| SMILES | RP-LC retention time [s] |
| --- | --- |
| CCc1ccc(NC(=O)CSc2ccc(N3CCC(C(=O)NC(C)C)CC3)nn2)cc1 | 680 |
| CCN1C(=O)c2cccnc2Sc2cc(CNC(=O)c3c(OC)cccc3OC)ccc21 | 784 |
| Cc1ccc(CNS(=O)(=O)c2ccc(-c3nnc(C)o3)o2)o1 | 737 |
| COc1ccc(C2(C(=O)N3CCC4(CC3)CN(C(C)C)C4c3ccccc3)CC2)cc1 (stereo not given) | 684 |
| O=c1cccnn1CCNS(=O)(=O)c1ccc(F)c(Cl)c1 | 665 |
| CN1CCN(CCCNC(=O)Cn2c3ccccc3c3cnn(C)c(=O)c32)CC1 | 560 |
| Cc1ccc(CNC(=O)C2(C)CN(S(C)(=O)=O)CC(=O)N2c2ccc(C)cc2C)cc1 (stereo not given) | 864 |
| Cc1ccc(CNC(=O)C2(C)CCN(S(=O)(=O)c3cc(C)cc(C)c3)CC2)cc1 | 1030 |
| COC(=O)c1cccc(C(=O)Nc2ccc(Cl)cc2F)n1 | 996 |
| O=C(NCc1cccs1)c1cccn1Cc1noc(-c2ccccc2)n1 | 972 |
| CC(C)c1noc(-c2cc(=O)n(CC(=O)NCc3ccc(Cl)cc3)c3ccccc23)n1 | 1020 |
| Cn1cnc2c(C(=O)Nc3cccc(Cl)c3)nn(-c3ccccc3)c2c1=O | 945 |
| CCN(Cc1ccc(C)cc1)Cc1cc(=O)n2ccc(C)cc2n1 | 628 |
| CCc1noc(-c2cnc3nc(C)ccc3c2Nc2cccc(OC)c2)n1 | 778 |
| COc1ccc(-c2ccnn2-c2ccc(SCc3cccc(C)c3)nn2)cc1 | 1400 |
| O=C(NCCc1ccccc1)NC1CCN(C(=O)N2C[C@H]3C[C@H](C2)[C@H]2CCCC(=O)N2C3)CC1 | 658 |
| Cc1nc2cc(-c3noc(-c4ccc(Cl)cc4)n3)ccc2o1 | 1210 |
| COc1ccccc1N1CCN(C(=O)CN2C(=O)CC(c3cccs3)=Nc3ccccc32)CC1 | 898 |
| O=C(CC1CCCCC1)NC1CCN(c2cc(-c3cccnc3)[nH]n2)CC1 | 633 |
| Cc1ccc(-c2ccc3nn(Cc4nc(-c5cccc(Br)c5)no4)c(=O)n3n2)cc1 | 1070 |
| CCc1onc(C)c1C1CCCN1C(=O)Nc1ccc(C)cc1 (stereo not given) | 844 |
| COc1ccc(S(=O)(=O)N2CCC[C@@H]2C(=O)NCc2csc(C)n2)cc1OC | 662 |

| SMILES | RP-LC retention time [s] |
| --- | --- |
| COC(=O)c1ccc(NC(=O)Cn2c(=O)cc(-c3nc(C(C)C)no3)c3ccccc32)cc1 | 990 |
| Cc1ccc(C)c(N2CCN(C(=O)Cn3ccc4ccc(N5CCOCC5)nc43)CC2)c1 | 1110 |
| COc1cccc(Cn2cnc3c(-c4ccc(OC)c(OC)c4)csc3c2=O)c1 | 947 |
| CCc1ccc(NC(=O)C2CCCN(S(=O)(=O)c3c[nH]c(C(=O)N4CCCC4)c3)C2)cc1 (stereo not given) | 873 |
| O=C(Cn1cnc2c(sc3nc(-c4ccccc4)ccc32)c1=O)Nc1ccc(Cl)cc1F | 1110 |
| Cc1cc(-n2nc(C)cc2C)n2nc(-c3ccc(Cl)cc3)c(C)c2n1 | 1170 |
| CC(C)CN(CC(C)C)C(=O)C1CCN(S(=O)(=O)c2cccc3nsnc23)CC1 | 1040 |
| CCc1ccc(-c2cc3c(=O)n(Cc4noc(CN5CCCCC5CC)n4)ccn3n2)cc1 (stereo not given) | 778 |
| COCCC1CCN(C(=O)CN(C)C(=O)c2ccc(C#N)cc2)CC1 | 666 |
| CCOc1cccc(-c2noc(-c3nnn4c3COC(c3cccc(OC)c3)C4)n2)c1 (stereo not given) | 1210 |
| COc1cc(NC(=O)N2CCN(c3cc(C)nc(N4CCOCC4)n3)CC2)cc(OC)c1 | 627 |
| Cc1cc(C)c(NC(=O)C23CCC(C)(C(=O)O2)C3(C)C)c([N+](=O)[O-])c1 (stereo not given) | 884 |
| CCC(=O)Nc1ccc(C2(C(=O)NCCN3CCCC3)CCCCC2)cc1 | 606 |
| CN(C)Cc1c(C(=O)NCCOc2ccc(C(=O)NO)cc2)oc2ccccc12 | 628 |
| CCOC(=O)c1c(C)[nH]c(C(=O)N2CCCC(C(=O)NCCN3CCCCC3)C2)c1C (stereo not given) | 620 |
| CC(=O)N(C1CC1)C1CCOC2(CCN(C(=O)Cc3c(C)noc3C)CC2)C1 (stereo not given) | 659 |
| O=C(NCc1ccccc1)c1ccc(-c2cncnc2)nc1 | 675 |
| CC1CN2C=NC(N3CCN(C(=O)Nc4ccccc4C(F)(F)F)CC3)=CC2=N1 (stereo not given) | 616 |
| COc1ccc(Nc2nc(N3CCN(C)CC3)nc3c2C(=O)CC(C)(C)C3)cc1 | 706 |
| O=C(Cn1ncc2c(N3CCN(c4ccccn4)CC3)ncnc21)Nc1ccc(F)cc1Cl | 650 |
| O=C(COc1ccc(Cl)cc1Cl)Nc1nnc(-c2ccncc2)o1 | 669 |
| C=CCNC(=O)c1cnn(-c2cc(-c3nc(CC)no3)ccn2)c1C | 845 |

Other lines, results leading:

| RP-LC retention time [s] | SMILES |
| --- | --- |
| 548 | O=C(c1ccc(N2C(=O)CCS2(=O)=O)cc1)N1CCN(c2ccccn2)CC1 |
| 773 | Cc1ccc(CNC(=O)c2cn(-c3ccc(NC(=O)C4CC4)cn3)cn2)cc1 |
| 991 | CCn1cc(-c2ccc(C)cc2)cc1C(=O)NC1CC1 |
| 1180 | COc1cccc(-c2nc(C3CCN(S(=O)(=O)c4ccc(C)c(C)c4)CC3)no2)c1 |
| 1120 | C[C@H]1CN(S(=O)(=O)c2ccc(F)cc2)C[C@@H]1c1nc(-c2ccccc2)no1 |
| 759 | CC1(C(=O)NC2CCCC2)Cn2cnc(C(=O)NCc3ccc(F)cc3)c2C(=O)N1C1CC1 (stereo not given) |
| 1110 | O=S(=O)(c1ccc(-c2noc(-c3ccccc3Br)n2)cc1)N1CCOCC1 |
| 611 | Cn1c(=O)sc2cc(S(=O)(=O)N3CCC(C(=O)NCc4ccccn4)CC3)ccc21 |
| 990 | O=C(CSc1nnc(-c2ccc3c(c2)OCO3)o1)N1CCc2ccccc2C1 |
| 627 | NC(=O)C1CCN(C(=O)CSc2nc3ccccc3s2)CC1 |
| 726 | O=C(c1ccsc1)N1CCC(c2nc(-c3ccc(F)cc3)n[nH]2)CC1 |
| 839 | Cc1cc(NC(=O)C2CCN(C(=O)c3ncn4c3COC(c3ccc(F)cc3)C4)CC2)ccc1F (stereo not given) |
| 576 | O=C(NCc1ccc(F)cc1F)c1ccc2c(c1)ncn2CCN1CCCC1 |
| 806 | Cc1ccc(NC(=O)N2CCC(n3c(-c4ccco4)nc4cccnc43)C2)cc1Cl (stereo not given) |
| 721 | CCOc1ccc(NC(=O)NCCc2nc3cccnc3n2C2CCCC2)cc1 |
| 904 | Cc1ccc(CNC(=O)Cn2cccc2-c2nnc(C3CCC3)o2)cc1 |
| 676 | O=C(c1ccccc1)N1CCC(Oc2cc(N3CCOCC3)ncn2)C1 (stereo not given) |
| 664 | O=C(Cn1c(=O)c2cccn2c2ccc(F)cc21)NCCCN1CCc2ccccc2C1 |
| 800 | O=C(Cn1c(=O)c2cccn2c2ccc(F)cc21)NC1CCCC1 |
| 775 | CCc1onc(C)c1C1CCCN1C(=O)c1ccccc1F (stereo not given) |
| 588 | CC1(C(=O)NCc2ccccc2)CCCN(C(=O)Nc2ccc(F)cc2)C1 (stereo not given) |
